# Experimental data as given in patent US20220218725A1, “METHODS AND MATERIALS FOR TREATING CANCER” (Mayo Foundation for Medical Education and Research, priority 2019, published 2022).
# Test system: JeKo-1 cells
# Assay: Cell viability, Annexin V/PI assay (also IC50 and combination index)
# Format: cell-based
# Procedure: To assess apoptosis and cellular proliferation, all cell lines were treated with CRM 1 inhibitors (concentration ranging from 0.05-2 μM) and salicylates at concentrations ranging from (0.001-10 mM) for 48 hours before analysis was performed. DMSO was used to substitute the drug in controls.
# After 48 hours incubation, cells were washed with Annexin buffer solution and stained with both propidium iodide (PI) and FITC-Annexin V (Life Technologies), and assayed on a BD Accuri flow cytometer (BD Biosciences). Apoptosis results were analyzed with BD CellQuest software. For cell cycle analysis, Jeko-1 cell line was intubated with CRM 1 inhibitors (concentrations ranging from […]) and salicylates (concentration at 3 mM) and Ly-1 cell line was intubated with CRM 1 inhibitors (concentrations ranging from 0.1-2.0 μM) and salicylates (concentration at 0.5-5 mM) for 24 and 48 hours and then fixed with 95% cold ethanol and kept at 4 C° for 24 h and subsequently underwent cell cycle analysis after PI staining and analysis was performed using BD FACS caliber flow cytometer (BD Biosciences) and FlowJo software (Tree Star).
# Cell lines were purchased from the cell line repositories ATCC (Manassas, Va.) or DSMZ (Braunschweig, Germany). These included MCL cell lines: JeKo-1, Mino; TCL cell lines: Karpas-299, SR-786; DLBCL cell lines: OCI-Ly1 (LY-1), OCI-Ly3 (LY-3), OCI-Ly19 (LY-19), SU-DHL-6 (DHL-6); MM cell lines: RPMI, U266, OPM2, Xgl, KMS2; ALL cell lines: CRL-1783; non-small cell lung cancer: NCI-H460, A549, HCC827; small cell lung cancer: H1048; sarcoma: Fuji, SW872. Cell lines were cultured according to instruction.
# KPT-330 purchased from Selleckchem (cat no: S7252) was dissolved in DMSO while CS (Santa Cruz, Calif.S 2016-36-6), sodium salicylate (Sigma-Aldrich, cat no: S3007), acetyl salicylate (Sigma-Aldrich, cat no: CAS 50-78-2) was diluted in PBS. Ketorolac (Sigma-Aldrich, cat no: 1356665), Bortezomib (Selleckchem, cat no: S1013), gemcitabine (Sigma-Aldrich, cat no: G6423), Leptomycin-B (Sigma-Aldrich, cat no: L2913-2X) and KPT-185 (Selleckchem, cat no: S7125) were dissolved in DMSO. The concentration range of KPT-330 was 0.05-1.0 μM while CS was 1-3 mM were used for ex vivo treatment and incubation time ranged from 24 hours to 72 hours. For the PARP inhibitor assay, olaparib 10 μM (SelleckChem, cat no: AZD2281 Ku-0059436) was used.
# The viability assessment for cell lines and primary patients samples were conducted with the Annexin V/PI method.
# Jeko-1 and OCI-Ly1 cell lines were used to assess the IC50. Keeping CS at 3 mM, KPT-330 was titrated. Relative IC50 was calculated as described elsewhere (see, e.g., Sebaugh et al., Pharmaceutical statistics 10:128-134 (2011)). The combination index was calculated as described elsewhere (see, e.g., Chou et al., Cancer Res 70:440-446 (2010)).
structure (smiles),measurement,setting,value
CC(C)[C@H](NC(=O)c1ccc2ccccc2n1)C(=O)N[C@@H](CC(=O)O)C(=O)COc1c(F)cccc1F [Q-VD-OPh],effect of pan-caspase inhibitor on K+CS induced cell death,"JeKo-1, 48 hours, KPT-330 0.5 μM and CS 3 mM",rescued cells from K+CS induced cell death
"O=C(c1cc(Cc2n[nH]c(=O)c3ccccc23)ccc1F)N1CCN(C(=O)C2CC2)CC1 [Olaparib, olaparib]",antitumor activity with PARP inhibitor,"JeKo-1, olaparib 10 μM, KPT-330 0.5 μM, CS 3 mM, 48 h, AnnexinV/PI",did not have any antitumor activity
Cc1cn([C@H]2C[C@H](O)[C@@H](CO)O2)c(=O)[nH]c1=O [thymidine],cell viability after K+CS treatment with exogenous thymidine,"JeKo-1 in thymidine-free media, 0.5 μM KPT-330, 3 mM CS, 10 μM thymidine, 48 hours",statistically significant increase in cell viability
